We go through 12 compounds from PMC13266984 (Journal of medicinal chemistry, 2026).

The target in assay [1] is T1, Human ALDH3A1 (Homo sapiens, UniProt P30838).
T1 sequence (P30838 1-453): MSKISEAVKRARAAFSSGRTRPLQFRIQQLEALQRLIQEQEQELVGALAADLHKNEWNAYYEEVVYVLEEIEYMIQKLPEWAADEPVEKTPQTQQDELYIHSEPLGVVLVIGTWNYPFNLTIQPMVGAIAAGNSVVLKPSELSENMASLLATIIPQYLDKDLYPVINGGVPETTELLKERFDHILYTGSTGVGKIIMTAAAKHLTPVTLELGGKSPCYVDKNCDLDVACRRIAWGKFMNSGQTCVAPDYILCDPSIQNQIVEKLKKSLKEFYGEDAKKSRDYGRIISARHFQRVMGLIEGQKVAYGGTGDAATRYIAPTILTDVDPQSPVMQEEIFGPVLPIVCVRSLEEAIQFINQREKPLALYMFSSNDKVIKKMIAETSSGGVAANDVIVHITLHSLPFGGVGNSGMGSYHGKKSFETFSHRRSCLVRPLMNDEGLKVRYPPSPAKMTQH
Kind of assay: ALDH3A1 biochemical assay (benzaldehyde/NADP+, diaphorase-resazurin readout, 1,536-well).

The target of assay [2] is T2, OE19 (3A1) (Homo sapiens, UniProt P30838).
T2 sequence (P30838 1-453): T1 sequence (P30838 1-453)
Kind of assay: Cellular ALDEFLUOR assay in OE19 cells (preferential ALDH3A1 expression).

Where [3] appears, read: Table S5, biochemical curve class.
Setting [4] is: Table S4, biochemical curve class.

Turning to `CC1(C)Oc2ccc(CNC(=O)c3csc(N4CCN(c5cccc(C(F)(F)F)c5)CC4)n3)cc2O1` [NCGC01397390-01], the half-maximal activity concentration (AC50) in assay [1] worked out at 25.1 nM; in assay [2], 1920 nM. In assay [1] (Table S5, biochemical), this compound returned an Efficacy of -96.99. The CC-v2 in assay [1] (setting [3]) is given as -1.1. In assay [2] (Table S5, OE19 cells), this compound showed a Cell_Efficacy of -76.04. For the same compound, the Cell_CC-v2 in assay [2] (Table S5, cellular curve class) is on record as -1.1.
`COc1ccccc1N1CCN(c2nc(C(=O)NCc3cccc(C)c3)cs2)CC1` [NCGC01210996-01]: the AC50 in assay [1] was found to be 910 nM; in assay [2], 50 nM. The compound further came in with an Efficacy in assay [1] (Table S4, biochemical) of -91.28. Also, the CC-v2 in assay [1] (setting [4]) is reported as -1.1. In addition, the Cell_Efficacy in assay [2] (Table S4, OE19 cells) is -98.32. Moreover, the Cell_CC-v2 in assay [2] (Table S4, cellular curve class) is listed as -1.3.
On to `Cc1cccc(CNC(=O)c2csc(N3CCN(c4cccc(F)c4)CC3)n2)c1` [NCGC01219288-01], for which the AC50 came out at 1020 nM in assay [1] and 990 nM in assay [2]. In assay [1] (Table S4, biochemical), this compound returned an Efficacy of -96.39. This compound displayed a CC-v2 in assay [1] (setting [4]) of -1.1. Also, in assay [2] (Table S4, OE19 cells), the Cell_Efficacy is listed as -85.92. Moreover, the Cell_CC-v2 in assay [2] (Table S4, cellular curve class) was -1.1.
`N#Cc1ccc(CNC(=O)c2csc(N3CCN(c4cccc(C(F)(F)F)c4)CC3)n2)cc1F` [NCGC01397293-01]: the half-maximal activity concentration (AC50) in assay [1] was found to be 5.6 nM; in assay [2] it was 766 nM. Besides, the Efficacy in assay [1] (Table S5, biochemical) is on record as -100.05. The CC-v2 in assay [1] (setting [3]) is on record as -1.1. Moreover, the Cell_Efficacy in assay [2] (Table S5, OE19 cells) is listed as -101.81. In assay [2] (Table S5, cellular curve class), the Cell_CC-v2 was -1.1.
Regarding `COc1ccc(N2CCN(c3nc(C(=O)NCc4cccc(C(F)(F)F)c4)cs3)CC2)cc1` [NCGC01211588-01], the values for the AC50 in assay [1] and in assay [2] were 1290 nM and 1970 nM, respectively. This compound also displayed an Efficacy in assay [1] (Table S4, biochemical) of -45.52. Moreover, in assay [1] (setting [4]), the CC-v2 is -1.2. For the same compound, the Cell_Efficacy in assay [2] (Table S4, OE19 cells) is -97.51. The Cell_CC-v2 in assay [2] (Table S4, cellular curve class) is given as -1.1.
Take `Cc1cc(CNC(=O)c2csc(N3CCN(c4cccc(C(F)(F)F)c4)CC3)n2)ccc1-c1ccccc1` [NCGC01407768-01]: the AC50 in assay [1] worked out at 316 nM; in assay [2], 15800 nM. Further, the Efficacy in assay [1] (Table S5, biochemical) was -32.49. Further, the CC-v2 in assay [1] (setting [3]) is -1.2. This compound also gave a Cell_Efficacy in assay [2] (Table S5, OE19 cells) of -93.67. The compound further displayed a Cell_CC-v2 in assay [2] (Table S5, cellular curve class) of -1.3.
Regarding `C[S+](=O)([O-])c1ccc(CNC(=O)c2csc(N3CCN(c4cccc(C(F)(F)F)c4)CC3)n2)cc1` [NCGC01407818-01], the AC50 was 447 nM in assay [1] and 200 nM in assay [2]. This compound yielded an Efficacy in assay [1] (Table S5, biochemical) of -62.88. In assay [1] (setting [3]), this compound came in with a CC-v2 of -1.2. Further, the Cell_Efficacy in assay [2] (Table S5, OE19 cells) is on record as -88.67. Further, the Cell_CC-v2 in assay [2] (Table S5, cellular curve class) is listed as -1.1.
For `Cc1cccc(CNC(=O)c2csc(N3CCN(c4ccc(C(N)=O)cc4)CC3)n2)c1` [NCGC01211194-01], the half-maximal activity concentration (AC50) in assay [1] was found to be 40800 nM; in assay [2], 880 nM. Besides, the Efficacy in assay [1] (Table S4, biochemical) is -38.00. In addition, the CC-v2 in assay [1] (setting [4]) was -2.2. The same compound returned a Cell_Efficacy in assay [2] (Table S4, OE19 cells) of -43.91. Also, in assay [2] (Table S4, cellular curve class), the Cell_CC-v2 was -1.2.
Turning to `O=C(NCc1ccc(S(F)(F)(F)(F)F)cc1)c1csc(N2CCN(c3cccc(C(F)(F)F)c3)CC2)n1` [NCGC01407933-01], the values for the half-maximal activity concentration (AC50) in assay [1] and in assay [2] were 28.2 nM and 2720 nM, respectively. This compound had an Efficacy in assay [1] (Table S5, biochemical) of -87.34. The compound also yielded a CC-v2 in assay [1] (setting [3]) of -1.1. In addition, the Cell_Efficacy in assay [2] (Table S5, OE19 cells) is recorded as -85.12. In assay [2] (Table S5, cellular curve class), this compound came in with a Cell_CC-v2 of -1.1.
In the case of `Cc1cccc(CNC(=O)c2csc(N3CCN(c4ccc(C#N)cc4)CC3)n2)c1` [NCGC01211190-01], the AC50 was 1450 nM in assay [1] and 3510 nM in assay [2]. For the same compound, the Efficacy in assay [1] (Table S4, biochemical) is -61.92. Also, the CC-v2 in assay [1] (setting [4]) is given as -1.2. The compound further yielded a Cell_Efficacy in assay [2] (Table S4, OE19 cells) of -84.69. The Cell_CC-v2 in assay [2] (Table S4, cellular curve class) is reported as -1.1.
Regarding `COc1cc(C)cc(CNC(=O)c2csc(N3CCN(c4cccc(C(F)(F)F)c4)CC3)n2)c1` [NCGC01407935-01], the AC50 in assay [1] was 14.1 nM; in assay [2] it was 1080 nM. Moreover, the Efficacy in assay [1] (Table S5, biochemical) is on record as -100.75. In assay [1] (setting [3]), this compound registered a CC-v2 of -1.1. This compound yielded a Cell_Efficacy in assay [2] (Table S5, OE19 cells) of -91.56. This compound showed a Cell_CC-v2 in assay [2] (Table S5, cellular curve class) of -1.1.
Regarding `CCc1ccc(N2CCN(c3nc(C(=O)NCc4cccc(C)c4)cs3)CC2)cc1` [NCGC01211128-01], the half-maximal activity concentration (AC50) was determined as 910 nM in assay [1] and 3130 nM in assay [2]. Moreover, the Efficacy in assay [1] (Table S4, biochemical) was -85.15. The compound also registered a CC-v2 in assay [1] (setting [4]) of -1.1. Besides, the Cell_Efficacy in assay [2] (Table S4, OE19 cells) was -86.59. In assay [2] (Table S4, cellular curve class), this compound returned a Cell_CC-v2 of -1.1.
